This test addresses cAMP and cAMP-inhibited cGMP 3',5'-cyclic phosphodiesterase 10A (Homo sapiens, UniProt Q9Y233). Briefly: Inhibition Assay: The human PDE10A full length assay was performed in 96-well micro titer plates. The reaction mixture of 50 ul contained 20 mM HEPES pH=7.5/10 mM MgCl2/0.05 mg/ml BSA (Sigma cat. # A-7906), 50 nM cGMP (Sigma, cat. # G6129) and 50 nM [3H]-cGMP (GE Healthcare, cat. # TRK392 S.A. 13.2 Ci/mmol), 3.75 ng/well PDE10A enzyme (Enzo Life Science, Lausen, Switzerland cat # SE-534) with or without a specific test compound. A range of concentrations of the potential inhibitor was used to generate data for calculating the concentration of inhibitor resulting in 50% of the effect (e.g. IC50, the concentration of the competitor inhibiting PDE10A activity by 50%). Non-specific activity was tested without the enzyme. The reaction was initiated by the addition of the substrate solution (cGMP and [3H]-cGMP) and allowed to progress for 20 minutes at room temperature. The reaction was terminated by adding 25 ul of YSi-SPA scintillation beads (GE Healthcare, cat. # RPNQ0150) in 18 mM zinc sulphate.

Chain of cAMP and cAMP-inhibited cGMP 3',5'-cyclic phosphodiesterase 10A (Q9Y233 whole entry): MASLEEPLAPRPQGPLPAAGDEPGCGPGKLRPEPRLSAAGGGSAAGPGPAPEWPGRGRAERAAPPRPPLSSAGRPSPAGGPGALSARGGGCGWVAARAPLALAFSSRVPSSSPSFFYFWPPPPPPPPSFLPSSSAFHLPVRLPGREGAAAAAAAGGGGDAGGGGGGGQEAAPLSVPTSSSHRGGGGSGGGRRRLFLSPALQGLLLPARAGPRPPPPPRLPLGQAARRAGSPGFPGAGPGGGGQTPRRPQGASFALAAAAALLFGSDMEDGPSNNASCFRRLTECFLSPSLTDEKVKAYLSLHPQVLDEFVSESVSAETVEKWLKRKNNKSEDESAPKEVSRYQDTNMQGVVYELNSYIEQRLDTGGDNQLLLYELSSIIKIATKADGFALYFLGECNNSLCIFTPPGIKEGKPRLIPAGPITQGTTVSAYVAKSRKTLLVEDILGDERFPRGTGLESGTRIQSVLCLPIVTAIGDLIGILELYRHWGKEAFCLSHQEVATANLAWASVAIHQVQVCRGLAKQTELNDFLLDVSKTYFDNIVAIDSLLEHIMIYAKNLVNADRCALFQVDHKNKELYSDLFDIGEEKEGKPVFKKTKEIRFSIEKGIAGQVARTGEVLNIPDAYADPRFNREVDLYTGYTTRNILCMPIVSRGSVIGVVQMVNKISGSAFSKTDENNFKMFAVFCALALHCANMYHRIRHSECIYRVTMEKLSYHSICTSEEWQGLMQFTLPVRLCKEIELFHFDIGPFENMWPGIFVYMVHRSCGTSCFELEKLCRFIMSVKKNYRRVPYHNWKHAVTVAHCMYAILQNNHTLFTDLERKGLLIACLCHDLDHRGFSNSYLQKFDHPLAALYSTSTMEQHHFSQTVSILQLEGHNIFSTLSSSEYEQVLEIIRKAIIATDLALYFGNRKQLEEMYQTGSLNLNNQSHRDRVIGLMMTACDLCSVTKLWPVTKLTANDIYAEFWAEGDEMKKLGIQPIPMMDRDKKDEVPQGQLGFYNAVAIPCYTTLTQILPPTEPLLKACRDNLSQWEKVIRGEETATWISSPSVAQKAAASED

For orientation: IC50 means the concentration that inhibits the measured activity by half. With `CCN(CC)c1nc2ccc(NC(=O)c3c(C(=O)N4CCCC4)cnn3C)cn2n1`, the IC50 is 3.3 nM.
For `Cn1ncc(C(=O)N2CCC2)c1C(=O)Nc1ccc2nc(N3CCOCC3)nn2c1`, the IC50 was 23.1 nM.

(Values after ChEMBL document CHEMBL3886463, “Triazolopyridine compounds” (2016).)
